Ends that are not written are not given here.
Experiments:
[1] = system: HaCaT cell line; experiment: Cytotoxicity (MTT) of oligopeptide in HaCaT human keratinocytes; assay type: cell-based; settings: 50 ppm and 100 ppm oligopeptide
Method: (§1) In order to evaluate the stability of the oligopeptide prepared in Preparation Example 1 when applied to humans, irritation of the skin and scalp due to cytotoxicity was measured using a HaCaT cell line as human keratinocytes.
(§2) The HaCaT cell line used therefor was incubated at 37° C. in a […] incubator. When the extent of incubation arrived at 85 to 90% of the area of a culture vessel, the cells were detached with trypsin, counted, and subjected to subculture at 5×10^3 cells/cm^2.
(§3) For cell culture, a Dulbecco's Modified Eagle Medium (DMEM, GIBCO, Cat. No. 11995-065, USA), containing 10% fetal bovine serum (FBS, GIBCO, Cat. No., 26140-079, USA), 100 U/ml penicillin, and 100 μg/ml streptomycin, was used. For subculture, a 75 T-flask (NUNC, Cat. No. 156499, Denmark) was used, and the cytotoxicity test was carried out using a 24-well plate (NUNC, Cat. No. 142475, Denmark).
(§4) The human keratinocytes were counted at 5×10^3 cells/well each and then aliquoted into the 24-well plate using a hemocytometer. These cells were incubated in DMEM containing 10% FBS for 48 hr. When the extent of incubation arrived at 40 to 50% of the surface area of the culture vessel, the medium was replaced with FBS-free DMEM containing each of 50 ppm oligopeptide and 100 ppm oligopeptide, and culture was further conducted for 24 hr. Thereafter, 50 μl of a 3-(4,5-dimethylthiazol-2-yl)-2,5-diphenyl tetrazolium bromide (MTT, Sigma M5655, USA) solution (2.5 mg/ml) was added and culture was further performed for 3 hr. Then, the cell culture broth was discarded, 200 μl of dimethyl sulfoxide (DMSO, Sigma D2650, USA) was added to each well and shaken, 100 μl thereof was transferred into a 96-well plate, and the absorbance thereof was measured at 570 nm using an Enzyme-Linked Immunosorbent Assay (ELISA).
(§5) The cytotoxicity was represented as a percentage based on the absorbance intensity of a control using pure water.

[2] = as above; assay type: cell-based; settings: 24 hr, MTT absorbance 570 nm as percentage of pure water control
Method: as §1, §2, §3, §4, §5

For “GQQKRSDRLNLSR-OH [Oligopeptide, Gly-Gln-Gln-Lys-Arg-Ser-Asp-Arg-Leu-Asn-Leu-Ser-Arg]”, the “cytotoxicity compared to the control” value [1] was “no cytotoxicity”, the viability ([2]; 50 ppm oligopeptide) was 93% and the viability ([2]; 100 ppm oligopeptide) was 81%.

Reference: patent US20170340544A1, “COSMETIC COMPOSITION FOR IMPROVING HEALTH OF SCALP AND METHOD OF PREPARING THE SAME” (OLIPASS Cosmeceuticals Company, priority 2016, published 2017)
